Patent publication US6046231A, “Use of 4'-bromoflavone in a cancer chemopreventative composition and method” (The Board of Trustees of the University of Illinois, priority 1999, dated 2000)

Experiments:
cytochrome P4501A1 = experiment: Effect on DMBA-induced cytochrome P4501A1 activity in rat tissues; type: in vivo, Sprague Dawley rat
Experimental: At 43 days of age, Sprague Dawley rats were placed on various experimental diets (Table 1) for 1 week prior to administration of a single (i.g.) dose of DMBA (15 mg). Animals then were weighed and sacrificed by CO2 asphyxiation. Tissues (livers and mammary glands) were collected, rinsed with saline, frozen in liquid nitrogen, and stored at -80° C. until analysis. Individual tissues were homogenized in 0.05 M Tris-HCl buffer (pH 7.5) containing 0.25 M sucrose. Cytosolic and microsomal fractions were obtained through differential centrifugation. Dicumarol-sensitive QR activity was measured as described above using 50 μl of suitably diluted cytosol supernatants (in duplicate). Cytochrome P4501A1-mediated EROD activities were determined as described previously in R. Poul et al. Anal. Biochem., 107, pp. 265-275 (1980) and S. Sharma et al., Cancer Res., 54, pp. 5848-5844 (1994), with slight modifications using suitably diluted microsomal protein. Enzyme activities were expressed as nmol/mg protein/min. Protein content was determined using Bradford reagent with BSA as standard, and data were presented as mean ±SE and analyzed using Student's t test (n=5).

[1] = test system: MCF-7 cells (B[α]P-DNA adducts); experiment: Binding of metabolically activated [3H]B[α]P to DNA of cultured MCF-7 cells; type: cell-based; conditions: Homo sapiens, MCF7, read-out: IC50, formation of B[α]P-DNA adducts, MCF-7
Experimental: (§1) Effect of 4'-BF on the Binding of Metabolically Activated [^3 H]B[α]P to DNA of Cultured Cells. HepG2 cells or MCF-7 cells were plated at a density of 1×10^6 cells/dish in 6 cm Petri dishes and allowed to incubate for 18 hours. Fresh media containing test samples were added to the cells 2 hours prior to the addition of 1 μM [^3 H]B[α]P (10 Ci/mmol) The test compound and tritiated carcinogen then were incubated for 6 hours. Following incubation, genomic DNA was extracted by the method described by Sharma et al., with minor modifications. Briefly, the cells were washed three times with PBS and harvested by incubation with 0.5 ml of proteinase K (100 μg/ml) in 0.2 M Tris-0.1 M EDTA (pH 8.5) for 10 min at 37° C. The cells were gently scraped from the dishes, transferred to 50 μl of 10% SDS solution, and incubated for 3 hours at 55° C. […] An aliquot of harvested DNA was used for measuring the relative absorbencies at 260 and 280 nm (A2360 nm/A2380 nm=1.7-1.9), and the DNA content was determined by absorbance at 260 nm (1 A2360 nm unit=50 μg). The remaining sample was used for the determination of radioactivity. All experiments were performed in triplicate; percentage inhibition of carcinogen-DNA binding mediated by test samples was calculated as follows: % inhibition=[1-(dpm per μg DNA test cells/dpm per μg DNA control cells)]×100.

[2] = test system: HepG2 cells (B[α]P-DNA adducts); experiment: Binding of metabolically activated [3H]B[α]P to DNA of cultured HepG2 cells; type: cell-based; conditions: Homo sapiens, read-out: IC50, formation of B[α]P-DNA adducts, HepG2
Experimental: as §1

[3] = test system: Salmonella typhimurium strain TM677; experiment: Antimutagenic assay, DMBA-induced mutagenesis; type: cell-based; conditions: S. typhimurium TM677; listed as 4'-BF
Experimental: A dose and time dependent induction of two major detoxification isoforms of GST (α form and μ form) mediated by 4'-BF has been studied in H4IIE rat hepatoma cells. In order to determine a possible mechanism of induction, the QR mRNA expression was tested using a RT-PCR technique and the induction patterns using HepG2 cells transfected with QR-chloramphenical acetyltransferase plasmid constructs containing various portions of 5'-region of the QR gene were analyzed. The antimutagenic activity of 4'-BF was tested in an antimutagenic assay against DMBA-induced mutagenesis with Salmonella typhimurium strain TM677. The chemopreventive efficacy of 4'-BF also was evaluated in a DMBA-induced mammary tumor carcinogenesis model in Sprague Dawley rats.

O=c1cc(-c2ccc(Br)cc2)oc2ccccc12 [4'-Bromoflavone]
cytochrome P4501A1 activity vs control (basal diet) (cytochrome P4501A1; liver and mammary gland, each treatment regimen): significantly induced
DMBA-induced cytochrome P4501A1 activity (cytochrome P4501A1; liver or mammary gland, in addition to DMBA): did not significantly alter
IC50 [1]: ~1700 nM
IC50 [2]: ~3100 nM
inhibition of DMBA-induced mutagenesis [3]: strongly inhibited
